Our source for the inhibition values is patent publication US20260256143A1, “HERBICIDAL COMPOSITION AND METHOD FOR CONTROLLING WEEDS” (Enko Chem, Inc., priority 2023, published 2026).

Experiment [1] deals with AMATU. Put plainly: Greenhouse pre-emergence residual test (Example 73). In kind it is in vivo, Amaranthus rudis. The settings on record: Amaranthus tuberculatus, pre-emergence; Dose 90 g a.i./ha; 17-21 DAT; read-out: Pre-emergence percent weed growth and germination inhibition AMATU. As for the experimental part:
(§1) Compound 1 was tested at several doses for residual weed control efficacy by itself or in combination as a tank mix with commercial herbicides. The following commercial products were used in tank mix with a 10% active emulsifiable concentrate formulation of Compound 1: S-metolachlor (Dual Magnum®, Syngenta), mesotrione (Callisto®, Syngenta), pyroxasulfone (Zidua® SC, BASF), metribuzin (Tricor DF™, United Phosphorus, Inc).
(§2) Accordingly, weed seeds were planted in 2-inch pots containing custom field soil mix (sandy loam with 3.3% organic matter, pH 7.0) and covered with a fine layer of the same soil. Three replicate pots were treated with each compound. Treatment consisting of the above formulation excluding active compound was applied as a treatment control (TC). Pots were treated with the test compound solution in a laboratory spray chamber fitted with 8003 even fan nozzles calibrated to deliver 187-200 L ha^−1 at 269 kPa. All treatments included the following inert ingredients in the final formulation; 1% Crop Oil Concentrate (v/v) (AGRI-DEX, Helena Agri) and 2.5% Ammonium sulphate (w/v). Compound 1 was incorporated into the soil by simulating rainfall equivalent to 0.2 mm using the same track sprayer. Subsequently, pots were irrigated from the bottom until weed control evaluation. Pots were placed back in the greenhouse and evaluated for percentage visual growth and germination inhibition compared to TC 17-21 days after treatment (DAT). Complete growth inhibition is represented by 100%.

Experiment [2] deals with DIGSA. Described as above. In kind it is in vivo, Digitaria sanguinalis. The note with it: Digitaria sanguinalis, pre-emergence; Dose 90 g a.i./ha; 17-21 DAT; read-out: Pre-emergence percent weed growth and germination inhibition DIGSA. Here is the method:
as §1, §2

Experiment [3] relates to ECHCG. The description is as above. In kind it is in vivo, Echinochloa crus-galli. The note with it: Echinochloa crus-galli, pre-emergence; Dose 90 g a.i./ha; 17-21 DAT; read-out: Pre-emergence percent weed growth and germination inhibition ECHCG. Here is the method: as §1, §2
Experiment [4] relates to AMATU. In words: Field test, soil residual activity on bare soil (Example 71). In kind it is in vivo, Amaranthus rudis. The note with it: Amaranthus tuberculatus, 1008 h, 6 weeks after application, read-out: % growth inhibition AMATU. As for the experimental part: (§3) Compound 1 and Compound 1 mixed with pyroxasulfone were tested at different field locations to evaluate the herbicides efficacy for controlling weeds by soil residual activity. All herbicide treatments were applied with a backpack CO2 pressurized sprayer at 190 L/ha volume. The herbicide applications were made to bare soil free of any vegetation to assess the efficacy of the different herbicides to suppress weeds germination and development. The herbicide treatments included Compound 1 formulated as 10% emulsified concentrate, pyroxasulfone as a commercial formulation (ZIDUA SC, BASF), or a mixture of Compound 1 and pyroxasulfone products prepared as a “tank-mix” before the field application. All herbicide field spray solution included ammonium sulfate final solution concentration of 2%. Different weeds species were assessed at the separate field locations. For each species, the herbicide efficacy to control weeds, assessed as % of suppressed weeds plants relative to the untreated control plots, was evaluated at 6 weeks after the herbicide application.

Experiment [5] deals with KCHSC. Put plainly: Greenhouse pre-emergence residual test (Example 73). The note with it: Bassia scoparia, pre-emergence; Dose 90 g a.i./ha; 17-21 DAT; read-out: Pre-emergence percent weed growth and germination inhibition KCHSC. In kind it is in vivo, Bassia scoparia. As for the experimental part: as §1, §2
The test system of experiment [6] is AMAPA. Described as above. In kind it is in vivo, Amaranthus palmeri. The note with it: Amaranthus palmeri, pre-emergence; Dose 90 g a.i./ha; 17-21 DAT; read-out: Pre-emergence percent weed growth and germination inhibition AMAPA. As for the experimental part: as §1, §2
For experiment [7], the system named is ALOMY. Described as above. In kind it is in vivo, Alopecurus myosuroides. The settings on record: Alopecurus myosuroides, pre-emergence; Dose 90 g a.i./ha; 17-21 DAT; read-out: Pre-emergence percent weed growth and germination inhibition ALOMY. As for the experimental part: as §1, §2
Experiment [8] relates to CHEAL. The description is as above. In kind it is in vivo, Chenopodium album. The settings on record: Chenopodium album, pre-emergence; Dose 90 g a.i./ha; 17-21 DAT; read-out: Pre-emergence percent weed growth and germination inhibition CHEAL. Here is the method:
as §1, §2

Experiment [9] has as its system SETFA. In words: Field test, soil residual activity on bare soil (Example 71). In kind it is in vivo. The note with it: Setaria faberi, 1008 h, Loc 4, pyroxasulfone 90 g a.i./ha, 6 weeks after application, read-out: % growth inhibition SETFA. Here is the method: as §3
Experiment [10] has as its system AMAPA. The description is as above. The note with it: Amaranthus palmeri, 1008 h, 6 weeks after application, read-out: % growth inhibition AMAPA. In kind it is in vivo. As for the experimental part:
as §3

Experiment [11] concerns DIGSA. The description is as above. The settings on record: Digitaria sanguinalis, 1008 h, Loc 5, pyroxasulfone 90 g a.i./ha, 6 weeks after application, read-out: % growth inhibition DIGSA. In kind it is in vivo. As for the experimental part:
as §3

In experiment [12] the test system is ABUTH. Described as above. The settings on record: Abutilon theophrasti, 1008 h, 6 weeks after application, read-out: % growth inhibition ABUTH. In kind it is in vivo. Here is the method:
as §3

Experiment [13] deals with CHEAL. The description is as above. In kind it is in vivo. The note with it: Chenopodium album, 1008 h, Loc 6, pyroxasulfone 90 g a.i./ha, 6 weeks after application, read-out: % growth inhibition CHEAL. As for the experimental part:
as §3

Setting [14] is: Loc 3, pyroxasulfone 90 g a.i./ha.

Read-outs that look alike come from different tables or passages of the source.

On to `Cn1nc(C(F)(F)F)c(CS(=O)(=O)C2=NOC(C)(C)C2)c1OC(F)F` [pyroxasulfone], for which the inhibition at 90 g/ha in experiment [1] worked out at 83%; in experiment [2], 78%; in [3], 100%; in experiment [4] (Loc 1, pyroxasulfone 90 g a.i./ha), 97%; in experiment [4] (Loc 2, pyroxasulfone 90 g a.i./ha), 74%; in experiment [5], 80%. Besides, the inhibition at 90 g/ha in experiment [6] amounted to 73%; in experiment [7], 47%; in experiment [8] it was 100%; in [9], 77%; in experiment [10] (setting [14]), 34%; in experiment [10] (Loc 5, pyroxasulfone 90 g a.i./ha), 75%. In addition, the inhibition at 90 g/ha in experiment [11] is 74%; in [12] (setting [14]), 44%; in experiment [12] (Loc 4, pyroxasulfone 90 g a.i./ha), 60%; in experiment [12] (Loc 6, pyroxasulfone 90 g a.i./ha), 50%; in experiment [13], 88%.
